By MIC50 is commonly meant an inhibitory concentration at the 50% level, which refers to growth in some studies and to a panel of isolates in others. A high value points to lower susceptibility. The MIC90 is the lowest concentration that inhibits either 90% of growth or 90% of the strains tested, depending on the study. Read a low MIC90 as greater potency. Broadly, the IC50 is the concentration needed to halve the response being measured.

Values after ≈ are worked out from the molar mass of the structure shown. Read-outs that look alike come from different tables or passages of the source.

For test [1], the system named is S. aureus clinical isolates. The test can be described thus: MIC by agar dilution, recent clinical isolates (UCSD Medical Center). The test is classed as cell-based, Staphylococcus aureus. As to conditions: MSSA (14). The procedure: Growth of all 14 isolates of MSSA was inhibited by Compound (9) at the lowest tested concentration (0.08 μg/ml) (See Table 6, below).

The test system of test [2] is S. aureus clinical isolates. The test is described as above. The test is classed as cell-based, Staphylococcus aureus. Conditions: MRSA (17).
The test system of a further test is K. pneumoniae. The test can be described thus: Susceptibility testing (MIC, modified NCCLS method). The test is classed as cell-based, Klebsiella pneumoniae. The procedure: (§1) The NCCLS (National Committee for Clinical Laboratory Standards) method to determine MIC's of antimicrobial compounds was modified for high-throughput screening. All stocks of tested compounds were prepared in either water or in dimethylsulfoxide (DMSO), depending on the solubility. […] Briefly 20 2-fold serial dilutions of testing compounds from the highest concentration were made in a 384-well microtiter plate. Each well was inoculated with testing bacteria in broth to a final concentration of approximately 1-1.5×10^6 cells/ml. Bacterial growth was determined by the increase of optical density at 600 nm using a microplate reader (Tecan SpectraFluor Plus).

For the next test, the system named is E. aerogenes. The test is described as above. Conditions: E. aerogenes (5). The test is classed as cell-based, Enterobacter aerogenes. As to the method: as §1
For another test, the system named is E. coli N. The test can be described thus: Inhibition of bacterial growth (IC50, OD600). The test is classed as cell-based. As to the method:
(§2) Compounds of the invention were tested for their ability to inhibit the growth of β-lactam sensitive and resistant bacteria by contacting samples of such cells with various dilutions of the compositions, incubating the cells at 37° C. in the presence of these compositions and then measuring the number of viable cells present in each sample.
(§3) Two compounds of the invention were tested, Compound (9) and Compound (1l). Incubation of bacterial cells was performed for two time periods, 10 hours and 20 hours. Four E. coli strains were used for the test. These strains were all derived from the strain NovaBlue (NovaGen Inc., Madison, Wis.). E. coli N is a normal, β-lactam sensitive strain. E coli R(Tem1) is a β-lactam resistant strain with a β-lactamase gene on a plasmid. E. coli C(Tem4O-15) is a β-lactam resistant strain with a β-lactam inhibitor resistant β-lactamase gene, and E. coli C(Tem3 1-27) is β-lactam resistant strain with an alternative β-lactam inhibitor resistant β-lactamase gene.
(§4) The various E. coli strains were each treated with dilutions of the compounds of the invention. […] The number of viable cells at each time point was determined by measuring the OD600 of each cell sample.
(§5) After measuring the number of viable cells present, the IC50 for each sample was determined. […] In addition, both compounds were effective at inhibiting the growth of both antibiotic sensitive and resistant bacterial cells.

Another test has as its system E. cloacae. The test can be described thus: Susceptibility testing (MIC, modified NCCLS method). The test is classed as cell-based, Enterobacter cloacae. As to conditions: E. cloacae (1). As to the method: as §1
The test system of the next test is Staphylococcus aureus. The description is as above. The test is classed as cell-based. As to the method:
as §1

Another test concerns P. aeruginosa. The test is described as above. The test is classed as cell-based, Pseudomonas aeruginosa. The procedure: as §1
The subject of a further test is E. coli C(Tem4O-15). The test can be described thus: Inhibition of bacterial growth (IC50, OD600). The test is classed as cell-based. As to conditions: for IC50: Cell C (Tem40-15). The procedure: as §2, §3, §4, §5
For the next test, the system named is E. coli C(Tem3 1-27). The test can be described thus: Inhibition of bacterial growth (IC50, OD600). The test is classed as cell-based. Conditions: for IC50: Cell C (Tem31-27). As to the method:
as §2, §3, §4, §5

A further test concerns E coli R(Tem1). The test can be described thus: Inhibition of bacterial growth (IC50, OD600). Conditions: for IC50 ratio N/R: N versus R (Tem1); for IC50: Cell R (Tem1). The test is classed as cell-based. As to the method: as §2, §3, §4, §5
The test system of a further test is E. faecalis. The test can be described thus: Susceptibility testing (MIC, modified NCCLS method). The test is classed as cell-based, Enterococcus faecalis. Conditions: Enterococcus faecalis, read-out: GM* MIC (geometric mean). As to the method:
as §1

Test [3] relates to Vancomycin-resistant E. faecalis or E. faecium. The description is as above. The test is classed as cell-based, Enterococcus faecalis, Enterococcus faecium. The procedure:
as §1

Another test relates to S. epidermidis. Described as above. Conditions: for MIC: Staphylococcus epidermidis. The test is classed as cell-based, Staphylococcus epidermidis. The procedure: as §1
The next test has as its system E. faecium. The description is as above. Conditions: Enterococcus faecium, read-out: GM* MIC (geometric mean). The test is classed as cell-based, Enterococcus faecium. The procedure: as §1
Where [4] appears, read: read-out: IC50 10 hours, Cell N, 10 hours, 37° C.
[5] abbreviates: read-out: IC50 10 hours, 10 hours.
Setting [6] is: read-out: IC50 20 hours, 20 hours.

Consider `Cc1nnc(SCC2=C(C(=O)O)N3C(=O)[C@@H](NC(=O)Cn4cnnn4)[C@H]3SC2)s1` [Cefazolin, reference compound], for which the MIC range was 0.08 to 0.6 µg/mL in [1] and 5 µg/mL (≈ 11 µM) in [2]. The values for the MIC50 in test [1] (Staphylococcus aureus) and in [2] (Staphylococcus aureus) were 0.16 µg/mL (≈ 0.352 µM) and above 5 µg/mL, respectively. The figures for the MIC90 in test [1] (Staphylococcus aureus) and in test [2] (Staphylococcus aureus) were 0.3 µg/mL (≈ 0.66 µM) and above 5 µg/mL, respectively.

In the case of `CC1(C)S[C@@H]2[C@H](NC(=O)[C@H](N)c3ccccc3)C(=O)N2[C@H]1C(=O)O` [Ampicillin, ampicillin, reference compound], the MIC in the test with K. pneumoniae (Klebsiella pneumoniae, K. pneumoniae (5), read-out: GM* MIC (geometric mean)) came to 27200 µg/mL (≈ 77800 µM); with E. aerogenes (Klebsiella aerogenes, read-out: GM* MIC (geometric mean)), 488 µg/mL (≈ 1400 µM); with E. cloacae (Enterobacter cloacae, read-out: GM* MIC (geometric mean)), 31 µg/mL (≈ 88.7 µM). Besides, the MIC range was 61 to 7813 µg/mL in the test with E. aerogenes and 31 µg/mL (≈ 88.7 µM) in the test on E. cloacae. For the same molecule, the IC50 in the test on E. coli N (Escherichia coli, 10 h, read-out: IC50 10 hours, Cell N, 10 hours, 37° C.) was 9.71 µM; in the test on E. coli N (Escherichia coli, 20 h, read-out: IC50 20 hours, Cell N, 20 hours) it was 7.47 µM; in the test with E. coli N (setting [4]) it was 7.88 µM.

Regarding “3-(2-(2,4-Dichlorophenoxy)-5-chlorophenoxy)methyl-7-(2-thienylacetamido)-1-oxo-3-cephem-4-carboxylate [Compound 11]”, the MIC in the test with Staphylococcus aureus (S. aureus ATCC 700260) is 0.0078 µg/mL; against Staphylococcus aureus (S. aureus ATCC 700699), 1 µg/mL; in the test on P. aeruginosa (P. aeruginosa ATCC 21726) it was above 64 µg/mL; in the test on P. aeruginosa (P. aeruginosa ATCC 29872) it was above 64 µg/mL; with K. pneumoniae (K. pneumoniae ATCC 700721) it was 4 µg/mL. Also, the “IC50 ratio (C/R or N/C)” value with E. coli C(Tem4O-15) (10 hours, line of C (Tem40-15)) is listed as “N/C = 20x”; with E. coli C(Tem3 1-27) (10 hours, line of C (Tem31-27)), “N/C = 6.7x”. Further, the “IC50 ratio (given C/R or N/R)” value was “N/R = 6.5x” in the test on E. coli C(Tem4O-15) (20 hours, line of C (Tem40-15)) and “N/R = 2.9x” with E. coli C(Tem3 1-27) (20 hours, line of C (Tem31-27)). Besides, the IC50 came to 0.369 µM in the test with E. coli C(Tem4O-15) (setting [5]); 0.653 µM in the test on E. coli C(Tem4O-15) (setting [6]); 7.48 µM in the test with E. coli N (setting [4]); 4.24 µM in the test on E. coli N (read-out: IC50 20 hours, Cell N, 20 hours); 1.11 µM with E. coli C(Tem3 1-27) (setting [5]); 1.48 µM in the test on E. coli C(Tem3 1-27) (setting [6]). Besides, the concentration for half-maximal inhibition (IC50) stood at 0.00539 µM in the test with E coli R(Tem1) (setting [5]) and 0.0353 µM in the test with E coli R(Tem1) (setting [6]). For the same molecule, the “IC50 ratio N/R” value in the test on E coli R(Tem1) (10 hours) is “N/R = 1388x”; with E coli R(Tem1) (20 hours) it was “N/R = 120x”.

In the case of `CN[C@H](CC(C)C)C(=O)N[C@H]1C(=O)N[C@@H](CC(N)=O)C(=O)N[C@H]2C(=O)N[C@H]3C(=O)N[C@H](C(=O)N[C@H](C(=O)O)c4cc(O)cc(O)c4-c4cc3ccc4O)[C@H](O)c3ccc(c(Cl)c3)Oc3cc2cc(c3O[C@@H]2O[C@H](CO)[C@@H](O)[C@H](O)[C@H]2O[C@H]2C[C@](C)(N)[C@H](O)[C@H](C)O2)Oc2ccc(cc2Cl)[C@H]1O` [Vancomycin, vancomycin, reference compound], the MIC in the test with E. faecalis is above 6.41 µg/mL; against Staphylococcus aureus (Staphylococcus aureus, ATCC11632, ATCC 11632, methicillin-sensitive, β-lactamase Neg./Pos.) it was 0.25 µg/mL (≈ 0.173 µM); in the test on Staphylococcus aureus (Staphylococcus aureus, ATCC13301, ATCC 13301, methicillin-sensitive, β-lactamase Positive) it was 0.25 µg/mL (≈ 0.173 µM); with Staphylococcus aureus (Staphylococcus aureus, ATCC14154, ATCC 14154, methicillin-sensitive, β-lactamase Positive) it was 0.5 µg/mL (≈ 0.345 µM); against Staphylococcus aureus (Staphylococcus aureus, ATCC33591, ATCC 33591, methicillin-resistant, β-lactamase Positive), 0.25 µg/mL (≈ 0.173 µM); in the test on Staphylococcus aureus (Staphylococcus aureus, ATCC33592, ATCC 33592, methicillin-sensitive, β-lactamase Positive), 0.5 µg/mL (≈ 0.345 µM). For the same molecule, the MIC in the test with Staphylococcus aureus (Staphylococcus aureus, ATCC33593, ATCC 33593, methicillin-resistant, β-lactamase Positive) turned out to be 0.5 µg/mL (≈ 0.345 µM); with Staphylococcus aureus (Staphylococcus aureus, ATCC33594, ATCC 33594, methicillin-sensitive, β-lactamase Positive), 0.5 µg/mL (≈ 0.345 µM); in the test with Staphylococcus aureus (Staphylococcus aureus, ATCC43300, ATCC 43300, methicillin-sensitive, β-lactamase Neg./Pos.), 0.5 µg/mL (≈ 0.345 µM); against Staphylococcus aureus (Staphylococcus aureus, ATCC700260, ATCC 700260, methicillin-sensitive, β-lactamase Positive), 1 µg/mL (≈ 0.69 µM); in the test with Staphylococcus aureus (Staphylococcus aureus, ATCC700698, ATCC 700698, methicillin-resistant, β-lactamase Negative) it was 2 µg/mL (≈ 1.38 µM); with Staphylococcus aureus (Staphylococcus aureus, ATCC700699, ATCC 700699, methicillin-resistant, β-lactamase Negative) it was 4 µg/mL (≈ 2.76 µM). Moreover, the MIC against Staphylococcus aureus (Staphylococcus aureus, ATCC700787, ATCC 700787, methicillin-resistant, β-lactamase Positive) was determined as 8 µg/mL (≈ 5.52 µM); against Staphylococcus aureus (Staphylococcus aureus, ATCC700788, ATCC 700788, methicillin-resistant, β-lactamase Positive), 2 µg/mL (≈ 1.38 µM); in the test on Staphylococcus aureus (Staphylococcus aureus, ATCC700789, ATCC 700789, methicillin-resistant, β-lactamase Positive), 2 µg/mL (≈ 1.38 µM); in the test on Staphylococcus aureus (Staphylococcus aureus, MRSA, read-out: Geometric mean of MIC, MRSA tested (7)) it was 1.64 µg/mL (≈ 1.13 µM); with Staphylococcus aureus (Staphylococcus aureus, MSSA, read-out: Geometric mean of MIC, MSSA tested (7)), 0.36 µg/mL (≈ 0.248 µM); in the test on Staphylococcus aureus (Staphylococcus aureus, read-out: Geometric mean of MIC, S. aureus (14)), 0.86 µg/mL (≈ 0.593 µM). In addition, the MIC is 2.83 µg/mL (≈ 1.95 µM) in the test with Staphylococcus aureus (Staphylococcus aureus, read-out: Geometric mean of MIC, S. aureus β-lactamase negative (2)); 0.94 µg/mL (≈ 0.649 µM) in the test with Staphylococcus aureus (Staphylococcus aureus, read-out: Geometric mean of MIC, S. aureus β-lactamase positive (12)); above 47.4 µg/mL in test [3] (Enterococcus, VRE, read-out: GM* MIC (geometric mean)); 1.74 µg/mL (≈ 1.2 µM) in the test with S. epidermidis (read-out: GM* MIC (geometric mean)); 2 µg/mL (≈ 1.38 µM) in the test on S. epidermidis (read-out: MICs of heterogeneous vancomycin resistant strains); above 3.49 µg/mL in the test with E. faecium. In test [3] (VRE (5)), the “GM* MIC (geometric mean)” value is above 47.4 µg/mL. In the test on S. epidermidis (S. epidermidis (5)), this molecule returned an MIC range of 1 to 2 µg/mL.

The values above are taken from patent US20020115642A1, “Beta-lactam antibiotics” (priority 2000, published 2002).
